From patent US9938272B2, “Hydrazine compound as blood coagulation factor Xa inhibitor” (NORTH CHINA PHARMACEUTICAL COMPANY., LTD., priority 2014, dated 2018)

Assays:
[1] = terminal phase; cited from earlier work
human Factor Xa = human Factor Xa (Homo sapiens (Human), UniProt P00742); assay: Human factor Xa chromogenic assay; format: biochemical; conditions: substrate S-2222, read-out: hfXa Ki
rat Factor Xa = rat Factor Xa (Rattus norvegicus (Rat), UniProt Q63207); assay: Rat factor Xa chromogenic assay; format: biochemical; conditions: substrate S-2222, read-out: rfXa Ki
Sequence of rat Factor Xa (Q63207 232-482): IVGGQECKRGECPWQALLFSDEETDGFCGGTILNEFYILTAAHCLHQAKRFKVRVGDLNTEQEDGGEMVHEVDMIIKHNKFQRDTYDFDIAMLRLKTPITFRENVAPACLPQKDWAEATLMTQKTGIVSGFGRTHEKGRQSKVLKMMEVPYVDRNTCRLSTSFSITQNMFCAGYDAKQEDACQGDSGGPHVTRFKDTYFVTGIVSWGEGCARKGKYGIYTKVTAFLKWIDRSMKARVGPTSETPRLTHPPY
Sequence of rat Factor Xa (Q63207 41-180): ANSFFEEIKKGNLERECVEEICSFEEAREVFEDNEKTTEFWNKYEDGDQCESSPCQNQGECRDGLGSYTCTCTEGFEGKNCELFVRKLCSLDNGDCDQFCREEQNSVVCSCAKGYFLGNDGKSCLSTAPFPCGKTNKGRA

human thrombin = human thrombin (Homo sapiens (Human), UniProt P00734); assay: Human thrombin assay; format: biochemical; conditions: substrate S-2238
human trypsin = human trypsin (Homo sapiens, UniProt P07477); assay: Human trypsin assay; format: biochemical; conditions: substrate S-2222
prothrombinase = prothrombinase (Homo sapiens (Human), UniProt P00742); assay: Prothrombinase assay (thrombin generation); format: biochemical; conditions: human factor Xa with human platelets, prothrombin, substrate S-2238
Sequence of prothrombinase (P00742 235-488): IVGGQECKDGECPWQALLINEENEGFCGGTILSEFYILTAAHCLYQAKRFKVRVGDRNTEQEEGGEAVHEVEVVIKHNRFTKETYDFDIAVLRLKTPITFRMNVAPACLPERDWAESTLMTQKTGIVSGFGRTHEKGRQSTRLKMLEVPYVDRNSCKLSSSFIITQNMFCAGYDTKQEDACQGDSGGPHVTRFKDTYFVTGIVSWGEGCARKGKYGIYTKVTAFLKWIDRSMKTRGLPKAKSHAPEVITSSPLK
Sequence of prothrombinase (P00742 41-179): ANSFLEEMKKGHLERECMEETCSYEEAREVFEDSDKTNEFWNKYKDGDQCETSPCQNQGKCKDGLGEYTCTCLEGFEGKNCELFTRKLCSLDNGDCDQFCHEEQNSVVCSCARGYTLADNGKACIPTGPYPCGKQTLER
Sequence of prothrombinase (P12259 29-737 partner): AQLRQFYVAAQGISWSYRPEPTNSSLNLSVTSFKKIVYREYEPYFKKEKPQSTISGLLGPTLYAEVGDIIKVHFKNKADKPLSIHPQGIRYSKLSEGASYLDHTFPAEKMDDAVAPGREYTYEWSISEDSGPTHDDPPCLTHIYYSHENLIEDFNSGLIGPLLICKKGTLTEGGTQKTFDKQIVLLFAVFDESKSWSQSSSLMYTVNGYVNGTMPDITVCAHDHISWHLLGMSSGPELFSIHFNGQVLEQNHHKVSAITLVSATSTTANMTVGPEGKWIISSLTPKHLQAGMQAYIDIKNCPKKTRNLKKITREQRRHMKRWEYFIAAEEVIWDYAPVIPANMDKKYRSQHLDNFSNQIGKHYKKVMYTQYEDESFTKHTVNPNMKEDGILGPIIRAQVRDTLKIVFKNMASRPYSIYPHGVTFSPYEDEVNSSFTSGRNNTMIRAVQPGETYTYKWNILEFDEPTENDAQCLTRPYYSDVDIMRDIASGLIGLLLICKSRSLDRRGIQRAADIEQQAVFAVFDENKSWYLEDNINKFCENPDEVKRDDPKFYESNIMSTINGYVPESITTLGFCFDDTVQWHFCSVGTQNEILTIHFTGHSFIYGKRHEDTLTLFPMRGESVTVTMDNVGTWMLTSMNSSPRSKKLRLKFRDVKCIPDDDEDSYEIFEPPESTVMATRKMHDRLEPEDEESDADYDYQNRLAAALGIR
Sequence of prothrombinase (P12259 1574-2224 partner): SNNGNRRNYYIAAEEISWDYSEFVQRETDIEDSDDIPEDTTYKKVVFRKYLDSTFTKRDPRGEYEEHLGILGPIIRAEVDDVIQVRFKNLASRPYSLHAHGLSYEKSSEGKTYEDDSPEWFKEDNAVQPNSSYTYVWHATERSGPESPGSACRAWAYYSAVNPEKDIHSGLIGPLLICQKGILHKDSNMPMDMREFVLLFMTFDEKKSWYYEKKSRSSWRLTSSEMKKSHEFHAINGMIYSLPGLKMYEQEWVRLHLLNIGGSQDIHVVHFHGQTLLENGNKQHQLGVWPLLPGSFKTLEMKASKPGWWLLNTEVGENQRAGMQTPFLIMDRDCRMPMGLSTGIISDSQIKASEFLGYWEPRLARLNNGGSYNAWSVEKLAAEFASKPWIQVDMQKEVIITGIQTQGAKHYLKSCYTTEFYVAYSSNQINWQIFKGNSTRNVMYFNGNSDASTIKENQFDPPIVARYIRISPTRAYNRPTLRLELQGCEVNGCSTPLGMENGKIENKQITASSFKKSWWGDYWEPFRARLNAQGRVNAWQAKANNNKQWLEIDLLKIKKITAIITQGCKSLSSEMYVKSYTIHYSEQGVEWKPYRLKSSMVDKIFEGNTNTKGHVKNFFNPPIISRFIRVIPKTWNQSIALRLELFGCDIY

[2] = cited from earlier work

Sequence of human Factor Xa (P00742 235-488): as the sequence (P00742 235-488) above
Sequence of human Factor Xa (P00742 41-179): as the sequence (P00742 41-179) above

| SMILES | mean elimination t½ [1] [h] | Ki (human Factor Xa) [µM] | Ki (rat Factor Xa) [µM] | Ki (human thrombin) [µM] | Ki (human trypsin) [µM] | Ki (prothrombinase) [µM] | water solubility [2] |
| --- | --- | --- | --- | --- | --- | --- | --- |
| COc1ccc(-n2nc(C(N)=O)c3c2C(=O)N(c2ccc(N4CCCCC4=O)cc2)CC3)cc1 [Apixaban, apixaban] | 8 to 15 |  |  |  |  |  |  |
| COc1ccc(-n2nc(C(N)=O)c3c2C(=O)N(C2CCN(C4CCNC4=O)CC2)CC3)cc1 (single isomer, unassigned) [Example 8b, 1-(4-Methoxyphenyl)-7-oxo-6-(1-(2-oxopyrrolidin-3-yl)piperidin-4-yl)-4,5,6,7-tetrahydro-1H-pyrazolo[3,4-c]pyridine-3-carboxamide] |  | ≤ 0.01 | 0.01 to 0.05 | ≥ 1 | ≥ 1 | 0.01 to 0.05 |  |
| COc1ccc(-n2nc(C(F)(F)F)c3c2C(=O)N(C2CCN(N4CCOCC4=O)CC2)CC3)cc1F [Example 28, 4-(4-(1-(3-Fluoro-4-methoxyphenyl)-7-oxo-3-(trifluoromethyl)-4,5-dihydro-1H-pyrazolo[3,4-c]pyridin-6(7H)-yl)piperidin-1-yl)morpholin-3-one] |  | ≤ 0.01 | ≤ 0.01 | ≥ 1 | ≥ 1 | ≤ 0.01 |  |
| O=C1c2c(c(C(F)(F)F)nn2-c2ccc3cc(Cl)ccc3c2)CCN1C1CCN(N2CCOCC2=O)CC1 [Example 24, 4-(4-(1-(6-Chloronaphthalen-2-yl)-7-oxo-3-(trifluoromethyl)-4,5-dihydro-1H-pyrazolo[3,4-c]pyridin-6(7H)-yl)piperidin-1-yl)morpholin-3-one] |  | ≤ 0.01 | ≤ 0.01 | ≥ 1 | ≥ 1 | ≤ 0.01 |  |
| Nc1noc2ccc(-n3nc(C(F)(F)F)c4c3C(=O)N(C3CCN(N5CCOCC5=O)CC3)CC4)cc12 [Example 26, 4-(4-(1-(3-Aminobenzo[d]isoxazol-5-yl)-7-oxo-3-(trifluoromethyl)-4,5-dihydro-1H-pyrazolo[3,4-c]pyridin-6(7H)-yl)piperidin-1-yl)morpholin-3-one] |  | ≤ 0.01 | ≤ 0.01 | ≥ 1 | ≥ 1 | ≤ 0.01 |  |
| COc1ccc(-n2nc(C#N)c3c2C(=O)N(C2CCN(N4CCCCC4=O)CC2)CC3)cc1 [Example 5, 1-(4-Methoxyphenyl)-7-oxo-6-(2′-oxo-[1,1′-bipiperidin]-4-yl)-4,5,6,7-tetrahydro-1H-pyrazolo[3,4-c]pyridine-3-carbonitrile] |  | 0.01 to 0.05 | 0.01 to 0.05 | ≥ 1 | ≥ 1 | ≤ 0.01 |  |
| NC(=O)c1nn(-c2ccc(OC(F)F)cc2)c2c1CCN(C1CCN(N3CCOCC3=O)CC1)C2=O [Example 11, 1-(4-(Difluoromethoxy)phenyl)-7-oxo-6-(1-(3-oxomorpholino)piperidin-4-yl)-4,5,6,7-tetra hydro-1H-pyrazolo[3,4-c]pyridine-3-carboxamide] |  | ≤ 0.01 | 0.01 to 0.05 | ≥ 1 | ≥ 1 | ≤ 0.01 |  |
| O=C(NC[C@H]1CN(c2ccc(N3CCOCC3=O)cc2)C(=O)O1)c1ccc(Cl)s1 [rivaroxaban] |  |  |  |  |  |  | limited |
| O=C1c2c(c(C(F)(F)F)nn2-c2ccc(OC(F)F)cc2)CCN1C1CCN(N2CCOCC2=O)CC1 [Example 23, 4-(4-(1-(4-(Difluoromethoxy)phenyl)-7-oxo-3-(trifluoromethyl)-4,5-dihydro-1H-pyrazolo[3,4-c]pyridin-6(7H)-yl)piperidin-1-yl)morpholin-3-one] |  | ≤ 0.01 | 0.01 to 0.05 | ≥ 1 | ≥ 1 | ≤ 0.01 |  |
